Results reported in patent US20040248928A1, “Pharmaceutical composition comprising an adenosine A1/A2 agonist and a sodium hydrogen exchanger inhibitor” (Adventis Pharmaceuticals Inc., priority 2001, published 2004).
Marks after values point to notes of the source that are not given here.

Legend:
open-chest rabbit hearts [1] = test: Infarct size, 60 min ischemia model (open-chest rabbit, TTC staining); assay type: in vivo, New Zealand White rabbits; conditions: 60 min ischemia + 3 h reperfusion; for Infarct size: (E)=5 min prior to ischemia, (L)=at reperfusion, AMP given at reperfusion, mean ± S.E.M.
Procedure: New Zealand White rabbits of either sex weighing 2.0-2.5 kg were anesthetized with pentobarbital (30 mg/kg iv), intubated through a tracheotomy, and ventilated with 100% oxygen via a positive pressure respirator (MD industries, Mobile, Ala.). The ventilation rate and tidal volume were adjusted to maintain arterial blood gases in the physiological range. Body temperature was maintained at 38-39° C. A catheter was inserted into the left carotid artery for monitoring blood pressure. Another catheter was inserted into the right jugular vein for drug infusion. A left thoracotomy was performed in the fourth intercostal space, and the pericardium was opened to expose the heart. A 2-0 silk suture on a curved taper needle was passed through the myocardium around a prominent branch of the left coronary artery. The ends of the suture were passed through a small piece of soft vinyl tubing to form a snare. Ischemia was induced by pulling the snare and then fixing it by clamping the tube with a small hemostat. Ischemia was confirmed by appearance of cyanosis. Reperfusion was achieved by releasing the snare and was confirmed by visible hyperemia on the ventricular surface. After 3 h of reperfusion, the rabbit was given an overdose of pentobarbital and the heart was quickly removed from the chest, mounted on a Langendorff apparatus, and perfused with saline to wash out blood. Then the coronary artery was reoccluded, and 1 ml of 0.25% fluorescent polymer microspheres (2-9 μm diameter, Duke Scientific Corp, Palo Alto, Calif.) were infused into the perfusate to demarcate the risk zone as the area of tissue without fluorescence. The heart was weighed, frozen, and cut into 2.5-mm-thick slices. The slices were incubated in 1% triphenyltetrazolium chloride (TTC) in sodium phosphate buffer at 37° C. for 20 min. The slices were immersed in 10% formalin to enhance the contrast between stained (viable) and unstained (necrotic) tissue and then squeezed between glass plates spaced exactly 2 mm apart. The myocardium at risk was identified by illuminating the slices with ultraviolet light. The infarcted and risk zone areas were traced on a clear acetate sheet and quantified with planimetry by an investigator blinded to the treatment. The areas were converted into volumes by multiplying the areas by slice thickness. Infarct size is expressed as a percentage of the risk zone. Pretreatment with cariporide was so potent that any additional protection would probably be undetectable with a 45-minute ischemic insult. We therefore chose a 60 min period of index ischemia for these studies. […] All data are expressed as means±S.E.M. One-way ANOVA combined with Scheffé's post hoc test was used to test for differences in baseline hemodynamics and infarct size among groups. […]

open-chest rabbit hearts [2] = test: Infarct size, 45 min ischemia model (open-chest rabbit, TTC staining); assay type: in vivo, New Zealand White rabbits; conditions: 45 min ischemia + 3 h reperfusion; for Infarct size: (E)=5 min prior to ischemia, (L)=at reperfusion, (E&L)=from 5 min prior to ischemia for 120 min, mean ± S.E.M.; for Infarct size as a percentage of the risk zone: control 55.8±3.9%
Procedure: New Zealand White rabbits of either sex weighing 2.0-2.5 kg were anesthetized with pentobarbital (30 mg/kg iv), intubated through a tracheotomy, and ventilated with 100% oxygen via a positive pressure respirator (MD industries, Mobile, Ala.). The ventilation rate and tidal volume were adjusted to maintain arterial blood gases in the physiological range. Body temperature was maintained at 38-39° C. A catheter was inserted into the left carotid artery for monitoring blood pressure. Another catheter was inserted into the right jugular vein for drug infusion. A left thoracotomy was performed in the fourth intercostal space, and the pericardium was opened to expose the heart. A 2-0 silk suture on a curved taper needle was passed through the myocardium around a prominent branch of the left coronary artery. The ends of the suture were passed through a small piece of soft vinyl tubing to form a snare. Ischemia was induced by pulling the snare and then fixing it by clamping the tube with a small hemostat. Ischemia was confirmed by appearance of cyanosis. Reperfusion was achieved by releasing the snare and was confirmed by visible hyperemia on the ventricular surface. After 3 h of reperfusion, the rabbit was given an overdose of pentobarbital and the heart was quickly removed from the chest, mounted on a Langendorff apparatus, and perfused with saline to wash out blood. Then the coronary artery was reoccluded, and 1 ml of 0.25% fluorescent polymer microspheres (2-9 μm diameter, Duke Scientific Corp, Palo Alto, Calif.) were infused into the perfusate to demarcate the risk zone as the area of tissue without fluorescence. The heart was weighed, frozen, and cut into 2.5-mm-thick slices. The slices were incubated in 1% triphenyltetrazolium chloride (TTC) in sodium phosphate buffer at 37° C. for 20 min. The slices were immersed in 10% formalin to enhance the contrast between stained (viable) and unstained (necrotic) tissue and then squeezed between glass plates spaced exactly 2 mm apart. The myocardium at risk was identified by illuminating the slices with ultraviolet light. The infarcted and risk zone areas were traced on a clear acetate sheet and quantified with planimetry by an investigator blinded to the treatment. The areas were converted into volumes by multiplying the areas by slice thickness. Infarct size is expressed as a percentage of the risk zone. Seven groups of rabbits were subjected to 45 min of regional ischemia followed by 3 h of reperfusion (FIG. 1). The PC was induced by a 5 min of regional ischemia followed by a 10 min reperfusion prior to the sustained ischemia. All groups receiving AMP 579 received a bolus injection of 30 μg/kg iv followed by an infusion of 3 μg/kg/min for 70 min. In PC+AMP (L) group, the hearts experienced PC and were treated with AMP 579 at reperfusion for 70 min. AMP 579 alone was given at reperfusion for 70 min in AMP (L) group. The hearts in AMP (E&L) group were treated with AMP 579 starting 5 min before ischemia for 120 min. An intravenous bolus injection of cariporide was given either 5 min prior to ischemia (Cariporide (E)) or 5 min before reperfusion (Cariporide (L)). All data are expressed as means±S.E.M. One-way ANOVA combined with Scheffé's post hoc test was used to test for differences in baseline hemodynamics and infarct size among groups. ANOVA with replication was used to test for changes in hemodynamics during an experiment within each group. A p value of less than 0.05 was considered to be significant.

SMILES	Infarct size (open-chest rabbit hearts [1])	Infarct size as a percentage of the risk zone (open-chest rabbit hearts [1]; AMP 579 alone at reperfusion (30 μg/kg + 3 μg/kg/min, 70 min), not significant vs control 66.0±4.9%) [%]	Infarct size (open-chest rabbit hearts [2]; listed as AMP (E&L))	Infarct size (open-chest rabbit hearts [2]; listed as AMP (L))	Infarct size as a percentage of the risk zone (open-chest rabbit hearts [2]; AMP 579 alone, 30 μg/kg iv bolus + 3 μg/kg/min for 70 min starting at reperfusion) [%]	Infarct size as a percentage of the risk zone (open-chest rabbit hearts [1]; cariporide 0.5 mg/kg bolus 5 min prior to ischemia, control 66.0±4.9%) [%]	Infarct size (open-chest rabbit hearts [2]; listed as Cariporide (E))	Infarct size (open-chest rabbit hearts [2]; listed as Cariporide (L)) [cm^3]	Infarct size as a percentage of the risk zone (open-chest rabbit hearts [2]; cariporide iv bolus 5 min prior to ischemia (pretreatment)) [%]	Infarct size as a percentage of the risk zone (open-chest rabbit hearts [2]; cariporide iv bolus just prior to reperfusion) [%]
CCNC(=O)[C@H]1CC(n2cnc3c(N[C@H](CC)Cc4sccc4Cl)ccnc32)[C@H](O)[C@@H]1O (relative stereo) [AMP 579, [1S-[1α,2β,3β,4α(S*)]]-4-[7-[[3-chloro-2-thienyl)methyl]propyl]amino]-3H-imidazo[4,5-b]pyridin-3-yl]-N-ethyl-2,3-dihydroxycyclopentanecarboxamide]	0.59 ± 0.09 cm^3	45.3±5.4	0.26 ± 0.05* cm^3	0.37 ± 0.03* cm^3	32.1±1.8					
CC(C)c1ccc(C(=O)N=C(N)N)cc1S(C)(=O)=O [Cariporide, 4-isopropyl-3-methylsulfonylbenzoylguanidine methane sulfonate]	0.47 ± 0.08* cm^3					41.5±7.7	0.13 ± 0.07* cm^3	0.60 ± 0.08	8.5±3.7	53.4±3.5
